Data reported in ChEMBL document CHEMBL1201862, “PubChem BioAssay data set” (2004).
Active and inactive are the calls of the source.

Tests used:
INS1 = test: beta cell apoptosis inhibitors, cytokine rescue, dose response, luminescence, retest (AID 449756); format: functional, cell-based; settings: Rattus norvegicus;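 also: cell death triggered by IL-1 beta plus TNF-alpha plus IFN-gamma mixture; protective hits raise ATP signal compared with cytokine alone wells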
[1] = target: Photoreceptor-specific nuclear receptor (Homo sapiens, UniProt Q9Y5X4); format: functional, cell-based;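 also: CHO-S cells with Gal4-NCOR and VP16-NR2E3 two-hybrid luciferase reporter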
[2] = target: SWI/SNF-related matrix-associated actin-dependent regulator of chromatin subfamily A member 2 (Homo sapiens, UniProt P51531); test: Luminescence-based cell-based high throughput dose response assay to identify activators of the function of SWI/SNF related, matrix associated, actin dependent regulator of chromatin, subfamily a, member 2 (SMARCA2, BRM).; format: functional
[3] = HEK293T cell cytotoxicity, dose response, cytotoxicity control for HIV Vif inhibitor project, cherry-picks (AID 652208); format: functional, cell-based
[4] = Counterscreen for activators of the function of SWI/SNF related, matrix associated, actin dependent regulator of chromatin, subfamily a, member 2 (SMARCA2, BRM): Luminescence-based cell-based high throughput dose response assay to identify non-selective compounds using the VP16 reporter assay.; format: functional
[5] = test system: Streptococcus sp. 'group A'; test: growth inhibition of control SK(-) GAS strain, dose response, counter-screen for streptokinase expression inhibitor project, luminescence, kanamycin, BacTiterGlo, confirmation (AID 1900); format: functional, organism-based
Streptokinase A = target: T1, Streptokinase A (Streptococcus pyogenes serotype M1, UniProt P10520); test: S. pyogenes streptokinase expression inhibitors, potency, dose response, plasminogen activation absorbance, OD405 (AID 1914); format: functional, Streptococcus pyogenes M1 GAS;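 also: secreted streptokinase activity via plasminogen activation per viability signal from cell pellet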
T1 sequence (P10520 whole entry): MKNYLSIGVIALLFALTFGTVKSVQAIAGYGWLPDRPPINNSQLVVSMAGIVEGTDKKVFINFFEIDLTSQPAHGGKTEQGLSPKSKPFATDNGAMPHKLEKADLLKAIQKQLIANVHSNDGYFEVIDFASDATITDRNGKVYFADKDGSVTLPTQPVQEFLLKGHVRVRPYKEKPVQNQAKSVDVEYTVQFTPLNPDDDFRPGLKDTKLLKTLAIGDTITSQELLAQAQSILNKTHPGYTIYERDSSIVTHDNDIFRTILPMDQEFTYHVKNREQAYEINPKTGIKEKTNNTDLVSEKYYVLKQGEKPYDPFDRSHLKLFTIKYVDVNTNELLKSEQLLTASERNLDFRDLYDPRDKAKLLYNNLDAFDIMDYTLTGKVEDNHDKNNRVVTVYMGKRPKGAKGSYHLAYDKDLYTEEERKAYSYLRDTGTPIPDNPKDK

Streptococcus = test: Group A Streptococcus viability loss, dose response, counter-screen for streptokinase expression inhibitor project, luminescence, BacTiterGlo (AID 1915); format: functional, organism-based;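 also: potency for reduction of bacterial viability or growth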
[6] = target: T2, Heat shock factor protein 1 (Mus musculus, UniProt P38532); test: HSF1 potentiators in luciferase reporter cells, confirmation, cell-based, NIH3T3, luminescence, dose retest (AID 435004); format: functional;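 also: stress induced by proteasome inhibitor MG132 added 30 min after compound; luciferase reporter driven by HSF1 response element in NIH3T3 cells; actives raise luminescence as potentiators of the MG132 stress response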
T2 sequence (P38532 whole entry): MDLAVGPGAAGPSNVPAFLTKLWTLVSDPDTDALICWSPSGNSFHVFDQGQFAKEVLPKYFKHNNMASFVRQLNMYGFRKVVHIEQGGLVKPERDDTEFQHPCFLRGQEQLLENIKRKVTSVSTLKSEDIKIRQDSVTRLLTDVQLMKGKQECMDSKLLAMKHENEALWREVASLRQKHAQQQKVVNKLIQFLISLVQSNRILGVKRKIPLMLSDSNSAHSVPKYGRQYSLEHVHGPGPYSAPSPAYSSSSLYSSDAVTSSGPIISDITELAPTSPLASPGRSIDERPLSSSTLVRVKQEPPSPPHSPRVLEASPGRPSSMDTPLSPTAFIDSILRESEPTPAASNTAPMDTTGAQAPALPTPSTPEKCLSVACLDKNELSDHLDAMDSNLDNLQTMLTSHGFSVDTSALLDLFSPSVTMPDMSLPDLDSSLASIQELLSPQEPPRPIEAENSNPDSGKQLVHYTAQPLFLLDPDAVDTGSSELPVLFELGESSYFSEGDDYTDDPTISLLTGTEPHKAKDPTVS

Cysteine protease ATG4B = target: T3, Cysteine protease ATG4B (Homo sapiens, UniProt Q9Y4P1); format: functional;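 also: Fluorescence-based dose-response confirmation assay measuring inhibition of ATG4B activity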
T3 sequence (Q9Y4P1 whole entry): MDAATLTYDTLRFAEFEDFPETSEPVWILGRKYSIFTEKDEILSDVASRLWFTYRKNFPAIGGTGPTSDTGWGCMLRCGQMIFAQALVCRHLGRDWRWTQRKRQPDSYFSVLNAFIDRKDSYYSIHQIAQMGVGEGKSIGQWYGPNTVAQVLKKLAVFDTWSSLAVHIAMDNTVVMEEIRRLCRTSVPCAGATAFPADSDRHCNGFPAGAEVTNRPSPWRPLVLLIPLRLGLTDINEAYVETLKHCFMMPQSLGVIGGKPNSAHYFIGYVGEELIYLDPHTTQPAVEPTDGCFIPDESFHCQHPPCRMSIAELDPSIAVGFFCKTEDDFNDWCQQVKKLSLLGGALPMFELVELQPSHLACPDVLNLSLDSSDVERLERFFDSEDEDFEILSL

Phospholipase A2 = Phospholipase A2 (Homo sapiens, UniProt P04054); format: functional;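 also: confirmatory dose-response counterscreen on phospholipase A2, testing hits that came from an ultra-high-throughput screen for ATG4B inhibitors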
[7] = target: T4, Methionyl-tRNA synthetase, putative (Trypanosoma brucei brucei, UniProt Q38C91); format: functional, Trypanosoma brucei brucei strain 927/4 GUTat10.1
[8] = Counterscreen for inhibitors of Trypanosoma brucei methionyl tRNA synthetase (MetRS): Luminescence-based cell-based high throughput dose response assay to identify compounds that are cytotoxic to Jurkat human T lymphocyte cells.; format: functional
[9] = target: T4, Methionyl-tRNA synthetase, putative; format: functional, Trypanosoma brucei brucei strain 927/4 GUTat10.1; remark: listed apart in the source
[10] = target: Botulinum neurotoxin type F (Clostridium botulinum, UniProt P30996); test: High-throughput multiplex microsphere dose response for inhibitors of toxin protease, specifically Botulinum neurotoxin light chain F protease, compounds from Cherry Pick 02.; format: functional; settings: read-out: EC50_MICROM
[11] = THP-1 cell cytotoxicity, dose response, cytotoxicity control for Vif-APOBEC3G degradation inhibitor project, THP-1 cells (AID 1117359); format: functional; settings: Human immunodeficiency virus 1, THP-1
[12] = inhibitors of Vif binding to APOBEC3G peptide, primary screen, biochemical, TR-FRET, GST-Vif 1-94, biotin-A3G peptide, dose response retest (AID 1117319); format: functional;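 also: TR-FRET signal of purified GST-Vif binding a biotinylated A3G peptide; inhibitors lower the FRET signal by blocking Vif and A3G binding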
[13] = NIH/3T3 fibroblast cytotoxicity, dose response, cytotoxicity control for T. cruzi growth inhibitor project, cell-based, cherry-pick samples, set 2 (AID 651817); format: functional; settings: NIH3T3
[14] = intracellular Trypanosoma cruzi inhibitors in host cells – cell-based, plate reader, cherry-pick samples, set 3, dose response (AID 651818); format: functional;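 also: compounds incubated with infected cells for about four days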
H9c2 = test: cells; format: functional, cell-based; settings: Rattus norvegicus, H9c2, Myocardium;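 also: confirmatory concentration-response retest of ultra-high-throughput screening hits for modulation of myocardial damage; cell death induced by hydrogen peroxide oxidative stress; compound pretreatment for 60 min then peroxide exposure for 2 h; potency is for protecting the cells against peroxide damage rather than for killing them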
Vero = test: Vero cell toxicity, dose response, cytotoxicity control, plate reader, cherry-pick samples (AID 687020); format: functional, cell-based; settings: Chlorocebus sabaeus
[15] = target: T5, Small ubiquitin-related modifier 1 (Homo sapiens, UniProt P63165); test: inhibitors of SUMO1 peptide binding, dose response, biochemical, fluorescence polarization, uHTS hits (AID 624382); format: functional; settings: read-out: IC50_Mean
[16] = target: ADP-ribosylation factor GTPase-activating protein 1 (Rattus norvegicus, UniProt Q62848); test: Fluorescence polarization-based biochemical high throughput dose response screening assay to identify inhibitors of ADP-ribosylation factor GTPase activating protein 1 (ARFGAP1).; format: functional
[17] = target: T5, Small ubiquitin-related modifier 1; test: inhibitors of SUMO1 partner interactions, dose response, biochemical, FRET (AID 624383); format: functional; settings: read-out: IC50_Mean
[18] = target: Arf-GAP with SH3 domain, ANK repeat and PH domain-containing protein 1 (Homo sapiens, UniProt Q9ULH1); format: functional;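 also: biochemical fluorescence polarization dose–response screen measuring inhibition of ASAP1; ASAP1 GAP domain stimulating GTP hydrolysis by truncated human ARF1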
[19] = HEK293 cell viability, dose response, counter-screen for EBV LMP1 inhibitor project, dry powder, set 2 (AID 624374); format: functional
[20] = target: T6, Short transient receptor potential channel 4 (Mus musculus, UniProt Q9QUQ5); test: mouse TRPC4 channel activators, dose response, cell-based, HEK293 TRPC4/mu-opioid, Fluo-4 calcium (AID 434937); format: functional
T6 sequence (Q9QUQ5 whole entry): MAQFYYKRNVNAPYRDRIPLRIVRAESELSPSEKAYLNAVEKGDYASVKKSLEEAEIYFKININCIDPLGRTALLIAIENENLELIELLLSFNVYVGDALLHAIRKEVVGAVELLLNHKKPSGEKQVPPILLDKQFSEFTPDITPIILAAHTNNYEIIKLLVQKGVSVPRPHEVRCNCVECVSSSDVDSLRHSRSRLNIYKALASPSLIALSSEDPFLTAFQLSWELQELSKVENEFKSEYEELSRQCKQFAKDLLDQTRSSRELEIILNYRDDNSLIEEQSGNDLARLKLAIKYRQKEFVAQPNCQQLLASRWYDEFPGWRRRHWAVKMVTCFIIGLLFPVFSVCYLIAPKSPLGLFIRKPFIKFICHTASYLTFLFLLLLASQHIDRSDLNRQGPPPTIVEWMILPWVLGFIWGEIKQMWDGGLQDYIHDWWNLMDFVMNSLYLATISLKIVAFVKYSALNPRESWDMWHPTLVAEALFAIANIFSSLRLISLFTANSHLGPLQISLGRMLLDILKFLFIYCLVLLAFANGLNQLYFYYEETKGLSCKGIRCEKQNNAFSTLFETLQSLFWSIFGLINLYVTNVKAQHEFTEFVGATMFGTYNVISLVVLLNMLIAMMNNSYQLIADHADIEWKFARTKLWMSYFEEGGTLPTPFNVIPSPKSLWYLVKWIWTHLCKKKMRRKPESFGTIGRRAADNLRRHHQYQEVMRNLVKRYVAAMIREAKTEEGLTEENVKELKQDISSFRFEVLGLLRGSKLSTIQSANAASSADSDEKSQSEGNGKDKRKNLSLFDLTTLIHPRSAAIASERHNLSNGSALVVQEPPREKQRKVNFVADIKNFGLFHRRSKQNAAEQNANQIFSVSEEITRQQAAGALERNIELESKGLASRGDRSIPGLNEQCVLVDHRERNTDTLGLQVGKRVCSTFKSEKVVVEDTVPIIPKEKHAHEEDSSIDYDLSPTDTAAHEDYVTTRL

[21] = target: Delta-type opioid receptor (Homo sapiens, UniProt P41143); test: Counterscreen for agonists of heterodimerization of the mu 1 (OPRM1) and delta 1 (OPRD1) opioid receptors: Luminescence-based cell-based high throughput dose response assay to identify agonists of OPRD1 homodimerization. [Related pubchem assays (depositor defined):AID504326, AID504355, AID504692, AID504904, AID504905]; format: functional
Mu-type opioid receptor = Mu-type opioid receptor (Homo sapiens, UniProt P35372); test: Counterscreen for agonists of heterodimerization of the mu 1 (OPRM1) and delta 1 (OPRD1) opioid receptors: Luminescence-based cell-based high throughput dose response assay to identify agonists of OPRM1 homodimerization.; format: functional;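 also: U2OS cells expressing OPRM1 and beta-arrestin as split beta-galactosidase partners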
[22] = target: 5-hydroxytryptamine receptor 5A (Homo sapiens, UniProt P47898); test: Counterscreen for agonists of OPRM1-OPRD1 heterodimerization: luminescence-based cell-based high throughput dose response assay to identify agonists of 5-hydroxytryptamine (serotonin) 5A receptor (HTR5A). [Related pubchem assays (depositor defined):AID504326, AID504355, AID504692, AID504904, AID504905]; format: functional
[23] = Late-stage results from the probe development effort to identify activators of OPRM1 and OPRD1 heterodimer formation: luminescence-based cell-based dose response counterscreen assay to determine cytotoxicity of test compounds.; format: functional
[24] = inhibitors of HIV Env-driven cell fusion, dose response, cherry-pick (AID 652057); format: functional, cell-based
[25] = CEM21 lymphoblast cell cytotoxicity, dose response, cytotoxicity control for viral fusion inhibitor project, CellTiter-Glo luminescence, cherry-picked (AID 652042); format: functional, cell-based;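 also: potency for signal decrease meaning cytotoxicity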
[26] = ZM109 Env clade C HIV-1 fusion inhibitors, dose response, HeLa effector, CEM target cells, luciferase, cherry-pick (AID 652058); format: functional, cell-based
[27] = off-target signal loss in HeLa-CEM21 co-culture – HeLa F-luc CTL cells, cherry-picked, counter-screen for HIV-1 Env fusion inhibitor project, dose response (AID 652040); format: functional, cell-based;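 also: potency for signal decrease marking cytotoxic or nonspecific inhibition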
[28] = inhibitors of clade B AD8 Env fusion, dose response, cell-based, cherry-pick (AID 652062); format: functional;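 also: luciferase signal from cell-cell fusion driven by HIV-1 clade B AD8 Env; potency is for inhibitors of fusion seen as a drop in luminescence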

T4 sequence (Q38C91 whole entry): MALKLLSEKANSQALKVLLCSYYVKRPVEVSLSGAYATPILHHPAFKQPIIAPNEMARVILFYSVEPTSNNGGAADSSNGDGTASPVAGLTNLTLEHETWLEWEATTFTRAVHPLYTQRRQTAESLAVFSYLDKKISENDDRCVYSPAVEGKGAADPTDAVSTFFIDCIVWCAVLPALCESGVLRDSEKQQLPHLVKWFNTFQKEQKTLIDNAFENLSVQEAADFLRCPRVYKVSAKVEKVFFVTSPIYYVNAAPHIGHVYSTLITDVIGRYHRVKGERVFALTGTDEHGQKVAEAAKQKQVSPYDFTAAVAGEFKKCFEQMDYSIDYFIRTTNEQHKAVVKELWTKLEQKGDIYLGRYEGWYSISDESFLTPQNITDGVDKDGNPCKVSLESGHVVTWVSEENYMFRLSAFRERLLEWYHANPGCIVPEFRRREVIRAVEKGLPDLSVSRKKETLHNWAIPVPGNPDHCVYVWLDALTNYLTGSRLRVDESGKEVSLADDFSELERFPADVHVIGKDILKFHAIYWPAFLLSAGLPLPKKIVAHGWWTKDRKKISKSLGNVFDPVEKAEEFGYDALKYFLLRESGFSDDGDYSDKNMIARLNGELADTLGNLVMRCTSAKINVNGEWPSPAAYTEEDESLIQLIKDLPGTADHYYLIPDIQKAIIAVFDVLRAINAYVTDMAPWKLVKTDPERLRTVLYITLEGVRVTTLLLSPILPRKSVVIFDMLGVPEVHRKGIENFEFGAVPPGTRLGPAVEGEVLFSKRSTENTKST
T5 sequence (P63165 whole entry): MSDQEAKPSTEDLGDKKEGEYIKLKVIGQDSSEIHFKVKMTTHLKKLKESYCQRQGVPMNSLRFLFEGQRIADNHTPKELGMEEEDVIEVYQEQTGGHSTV
Chain of ADP-ribosylation factor GTPase-activating protein 1 (Q62848 whole entry): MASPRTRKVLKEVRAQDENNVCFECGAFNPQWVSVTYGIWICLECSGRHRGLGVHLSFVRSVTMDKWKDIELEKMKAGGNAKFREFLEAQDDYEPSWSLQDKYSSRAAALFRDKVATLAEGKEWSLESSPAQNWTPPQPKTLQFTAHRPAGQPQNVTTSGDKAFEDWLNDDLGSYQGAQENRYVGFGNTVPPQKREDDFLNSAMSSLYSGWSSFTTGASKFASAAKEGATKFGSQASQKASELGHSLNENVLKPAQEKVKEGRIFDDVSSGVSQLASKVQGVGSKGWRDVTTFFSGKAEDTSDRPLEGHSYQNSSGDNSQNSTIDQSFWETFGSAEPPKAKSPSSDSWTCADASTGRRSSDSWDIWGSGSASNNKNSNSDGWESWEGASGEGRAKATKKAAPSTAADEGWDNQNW
Chain of Photoreceptor-specific nuclear receptor (Q9Y5X4 whole entry, the tested form may be a part): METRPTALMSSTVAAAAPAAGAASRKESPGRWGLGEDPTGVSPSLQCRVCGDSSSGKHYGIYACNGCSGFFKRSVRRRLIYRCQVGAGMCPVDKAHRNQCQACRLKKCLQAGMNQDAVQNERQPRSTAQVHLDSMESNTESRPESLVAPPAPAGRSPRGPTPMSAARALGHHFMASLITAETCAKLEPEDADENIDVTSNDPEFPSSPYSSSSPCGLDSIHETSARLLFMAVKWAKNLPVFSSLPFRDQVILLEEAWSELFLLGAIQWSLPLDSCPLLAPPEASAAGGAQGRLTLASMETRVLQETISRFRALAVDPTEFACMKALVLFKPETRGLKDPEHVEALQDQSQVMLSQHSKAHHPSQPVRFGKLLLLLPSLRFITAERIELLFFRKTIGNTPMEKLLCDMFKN
Chain of SWI/SNF-related matrix-associated actin-dependent regulator of chromatin subfamily A member 2 (P51531 whole entry): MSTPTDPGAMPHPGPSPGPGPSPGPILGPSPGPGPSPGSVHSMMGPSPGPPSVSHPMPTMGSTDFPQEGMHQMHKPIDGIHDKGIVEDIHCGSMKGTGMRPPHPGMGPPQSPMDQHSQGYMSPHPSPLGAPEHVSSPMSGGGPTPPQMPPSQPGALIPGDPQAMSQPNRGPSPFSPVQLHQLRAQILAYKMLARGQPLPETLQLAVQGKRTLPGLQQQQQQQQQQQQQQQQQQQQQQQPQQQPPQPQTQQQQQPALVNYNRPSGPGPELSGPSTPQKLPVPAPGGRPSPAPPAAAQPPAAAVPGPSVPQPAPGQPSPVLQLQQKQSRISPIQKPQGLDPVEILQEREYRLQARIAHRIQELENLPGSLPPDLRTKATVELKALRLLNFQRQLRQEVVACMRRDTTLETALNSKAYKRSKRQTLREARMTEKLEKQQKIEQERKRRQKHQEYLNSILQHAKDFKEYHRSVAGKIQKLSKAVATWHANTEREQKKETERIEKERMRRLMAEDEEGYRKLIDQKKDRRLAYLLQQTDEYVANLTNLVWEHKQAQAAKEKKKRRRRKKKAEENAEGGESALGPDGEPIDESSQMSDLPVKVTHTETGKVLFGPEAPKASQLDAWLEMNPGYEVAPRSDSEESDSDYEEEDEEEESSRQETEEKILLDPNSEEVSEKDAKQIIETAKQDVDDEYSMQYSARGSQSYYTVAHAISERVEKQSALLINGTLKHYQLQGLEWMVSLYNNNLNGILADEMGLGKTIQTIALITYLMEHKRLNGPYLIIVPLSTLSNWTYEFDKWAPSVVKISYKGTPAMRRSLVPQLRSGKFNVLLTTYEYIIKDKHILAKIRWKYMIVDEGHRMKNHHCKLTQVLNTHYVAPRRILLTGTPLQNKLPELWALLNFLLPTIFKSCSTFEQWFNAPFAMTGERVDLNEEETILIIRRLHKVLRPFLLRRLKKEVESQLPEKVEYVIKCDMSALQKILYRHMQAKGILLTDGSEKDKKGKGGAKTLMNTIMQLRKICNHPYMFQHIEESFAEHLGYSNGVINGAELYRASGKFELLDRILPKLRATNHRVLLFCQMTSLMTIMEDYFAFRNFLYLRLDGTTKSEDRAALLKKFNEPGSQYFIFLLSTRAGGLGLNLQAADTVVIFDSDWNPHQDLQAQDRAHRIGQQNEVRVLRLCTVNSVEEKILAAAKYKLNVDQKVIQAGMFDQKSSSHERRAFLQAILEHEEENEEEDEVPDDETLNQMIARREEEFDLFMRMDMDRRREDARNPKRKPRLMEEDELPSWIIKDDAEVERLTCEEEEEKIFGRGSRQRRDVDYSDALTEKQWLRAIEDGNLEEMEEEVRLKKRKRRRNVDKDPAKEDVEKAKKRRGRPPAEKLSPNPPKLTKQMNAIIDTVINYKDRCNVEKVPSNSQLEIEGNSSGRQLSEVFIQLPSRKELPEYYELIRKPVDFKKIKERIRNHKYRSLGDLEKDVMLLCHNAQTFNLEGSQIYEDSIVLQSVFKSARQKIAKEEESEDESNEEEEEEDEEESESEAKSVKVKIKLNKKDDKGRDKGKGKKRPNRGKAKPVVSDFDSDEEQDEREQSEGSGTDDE
Chain of 5-hydroxytryptamine receptor 5A (P47898 whole entry): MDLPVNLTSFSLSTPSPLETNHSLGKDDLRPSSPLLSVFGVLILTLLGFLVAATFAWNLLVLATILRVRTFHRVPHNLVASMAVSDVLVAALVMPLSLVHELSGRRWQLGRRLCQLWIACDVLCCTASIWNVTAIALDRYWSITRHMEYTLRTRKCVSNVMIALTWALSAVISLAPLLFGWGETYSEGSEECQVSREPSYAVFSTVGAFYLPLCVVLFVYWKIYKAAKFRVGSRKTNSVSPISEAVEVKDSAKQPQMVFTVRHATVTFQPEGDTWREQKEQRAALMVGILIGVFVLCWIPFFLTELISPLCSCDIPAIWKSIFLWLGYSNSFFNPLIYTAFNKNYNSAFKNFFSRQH
Chain of Arf-GAP with SH3 domain, ANK repeat and PH domain-containing protein 1 (Q9ULH1 whole entry, the tested form may be a part): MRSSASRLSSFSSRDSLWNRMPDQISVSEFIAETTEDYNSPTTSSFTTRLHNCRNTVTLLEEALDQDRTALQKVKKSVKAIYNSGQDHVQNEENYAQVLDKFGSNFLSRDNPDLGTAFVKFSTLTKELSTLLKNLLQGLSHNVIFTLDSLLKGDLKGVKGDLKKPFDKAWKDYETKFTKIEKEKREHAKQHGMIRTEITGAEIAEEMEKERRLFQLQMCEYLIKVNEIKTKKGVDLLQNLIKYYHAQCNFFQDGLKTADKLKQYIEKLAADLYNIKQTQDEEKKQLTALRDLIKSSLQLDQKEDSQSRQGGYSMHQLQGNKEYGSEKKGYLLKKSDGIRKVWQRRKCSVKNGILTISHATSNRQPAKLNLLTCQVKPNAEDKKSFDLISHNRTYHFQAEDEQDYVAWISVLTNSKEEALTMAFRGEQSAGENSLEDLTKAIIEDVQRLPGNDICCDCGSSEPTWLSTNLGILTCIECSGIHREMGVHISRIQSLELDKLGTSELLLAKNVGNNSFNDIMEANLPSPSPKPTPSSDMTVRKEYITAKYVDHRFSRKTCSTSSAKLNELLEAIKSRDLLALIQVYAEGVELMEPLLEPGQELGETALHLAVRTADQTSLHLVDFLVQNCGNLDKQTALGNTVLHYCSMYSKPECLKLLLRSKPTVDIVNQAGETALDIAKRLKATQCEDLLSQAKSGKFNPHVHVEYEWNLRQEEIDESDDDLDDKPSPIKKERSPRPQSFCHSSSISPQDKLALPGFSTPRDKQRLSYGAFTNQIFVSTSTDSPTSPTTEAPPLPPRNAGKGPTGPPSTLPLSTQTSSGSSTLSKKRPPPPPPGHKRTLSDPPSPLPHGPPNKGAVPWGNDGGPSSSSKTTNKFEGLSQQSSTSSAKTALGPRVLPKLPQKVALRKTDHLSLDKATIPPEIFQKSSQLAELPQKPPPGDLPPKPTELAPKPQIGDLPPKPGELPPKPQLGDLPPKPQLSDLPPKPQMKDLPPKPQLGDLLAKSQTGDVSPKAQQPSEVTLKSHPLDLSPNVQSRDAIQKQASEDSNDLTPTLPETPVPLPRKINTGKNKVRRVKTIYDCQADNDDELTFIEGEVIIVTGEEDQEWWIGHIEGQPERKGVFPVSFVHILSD
Chain of Phospholipase A2 (P04054 whole entry): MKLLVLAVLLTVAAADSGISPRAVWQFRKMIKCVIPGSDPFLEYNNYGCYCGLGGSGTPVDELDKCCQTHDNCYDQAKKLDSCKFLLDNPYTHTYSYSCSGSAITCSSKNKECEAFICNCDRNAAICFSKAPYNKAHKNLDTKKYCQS

Cc1cnc(NC(=O)CN2CCN(c3ccccn3)CC2)s1
AC50 (INS1): 6.06 µM (active) | IC50 [1]: 1.17 µM (active) | EC50 [2]: > 91.2 µM (inactive) | AC50 [3]: > 52 µM (inactive) | EC50 [4]: > 91.2 µM (inactive)

S=C(NCCSCc1ccc(Cl)c(Cl)c1)Nc1ccccc1
EC50 [5]: 11.2 µM (active) | EC50 (Streptokinase A): 14.4 µM (active) | EC50 (Streptococcus): > 150 µM (not active) | EC50 [6]: > 260 µM (inactive) | IC50 (Cysteine protease ATG4B): 6.67 µM (active) | IC50 (Phospholipase A2): 3.24 µM (active) | IC50 [7]: 11.1 µM (inactive) | IC50 [8]: 47.9 µM (inactive) | IC50 [9]: 11.6 µM (inactive)

Cc1cccc2c1NC1(CCCC1)CC2C (stereo unspecified)
EC50 [10]: > 20 µM (inactive) | CC50 [11]: 24.6 µM (active) | IC50 [12]: > 100 µM (active)

C[C@@H]1CN([C@@H](C)CO)C(=O)c2cccc(NC(=O)c3ccncc3)c2O[C@H]1CN(C)Cc1ccc(Cl)c(Cl)c1
AC50 [13]: 16.6 µM (active) | AC50 [14]: 80 nM (active)

COc1ccc(N(CC(=O)NCCSc2ccccc2)S(=O)(=O)c2ccccc2)c(OC)c1
IC50 (H9c2): 10.8 µM (active) | AC50 (Vero): 38.4 µM (active)

CC(=O)Nc1ccc(C(=O)Nc2nc(-c3cccnc3)cs2)cc1
IC50 [15]: > 66.6 µM (inactive) | IC50 [16]: 36.6 µM (inactive) | IC50 [17]: 12.1 µM (active) | IC50 [18]: 31.1 µM (inactive)

CS(=O)(=O)Nc1ccc2c(c1)[C@@H]1C[C@H](CC(=O)NCC3CC3)O[C@H](CO)[C@@H]1O2
AbsAC35 [19]: 85.99 µM

CCOC(=O)C1(CCc2ccccc2)CCN(Cc2ccc(NC(C)=O)cc2)CC1
EC50 [20]: 26.7 nM (active) | EC50 [21]: 4.5 µM (active) | EC50 (Mu-type opioid receptor): 24.3 µM (inactive) | EC50 [22]: > 92.5 µM (inactive) | CC50 [23]: > 10 µM (inactive)

Cc1cc(C)nc(Nc2nc(C(N)CCc3ccccc3)cs2)n1 (stereo unspecified)
AC50 [24]: 4.75 µM (active) | AC50 [25]: 40.1 µM (active) | AC50 [26]: 3.65 µM (active) | AC50 [27]: 6.75 µM (active) | AC50 [28]: 18.2 µM (active)
